Laboratory results from paper PMC2811193, “Complementary Roles in Cancer Prevention: Protease Inhibitor Makes the Cancer Preventive Peptide Lunasin Bioavailable” (PLoS ONE, 2010).

How the values were obtained:
[1] = Bioavailability of 3H-lunasin after oral gavage with LES in CD-1 mice; type: in vivo
Protocol: Bioavailability studies in mice were done at North View Pacific Laboratories (Hercules, CA, USA), according with the Animal Care and Use Committee (ACUC) human guidelines. CD-1 mice (3-5 weeks old) were purchased from Jackson Laboratories (Bar Harbor, ME, USA) and conditioned on AIN76A diet for one week. Forty mice (20 male and 20 female) were fasted for 8 hrs before oral administration by gavage. Mice were separated into two groups, a control group receiving 240 mg of LES formulation and a treatment group receiving 240 mg of LES formulation plus 8 µCi of ^3H-lunasin (SibTech, Inc. Brookfield, CT, USA) in 0.1 mL of 10% sucrose solution. Four mice of each group were sacrificed at 3, 6, 9, 12 and 24 hrs after oral administration. The tissue samples were collected and prepared for scintillation counting by solubilizing in TS-2 tissue solubilizer (Research Products International Corp., Chicago, IL, USA) and addition of 15% benzoyl peroxide. Each sample was read in 5 ml of HionicFluor cocktail mix using a 1600TR liquid scintillation counter (Packard Inst. Meriden CT, USA).
Supplementary file pone.0008890.s001.tif: Figure S1 Recovery of ^3H-lunasin dose (expressed in percentage) in (-▴-) total, (-•-) tissues, and (-o-) gastrointestinal contents of mice at 3, 6, 9, 12, and 24 hours post-gavage of lunasin-enriched soy (LES). […]

[2] = tested on: MDA-MB-231 tumor xenografts; test: Breast cancer prevention in MDA-MB-231 xenograft mouse model; type: in vivo, athymic NCr-nu/nu mice; details: for tumor incidence (mice showing tumors) / tumor incidence lower compared with the BBI group / tumor incidence lower compared with the control: seven weeks post-cells injection
Protocol: Human MDA-MB-231 breast cancer cells were obtained from ATCC and grown in Leibovitz's L-15 Medium supplemented with 10% FBS, 100 unit/ml penicillin, and 100 µg/ml streptomycin (Invitrogen), in a humidified atmosphere at 37°C.
Mice protocol was approved by ACUC (University of California, Berkeley, CA, USA). Thirty-two six weeks-old athymic NCr-nu/nu mice (National Cancer Institute, Frederick, MD, USA) were acclimatized for 1 week and randomly divided into four groups (n = 8): control group (receiving PBS), BBI-group (receiving BBI at 20 mg/kg body weight), and two lunasin-groups (receiving synthetic lunasin [Chengdu KaiJie Bio-Pharmaceutical Co., Chengdu, P.R. China] at 20 mg/kg body weight and 4 mg/kg body weight). After two months of i.p. treatment three times a week, mice were injected subcutaneously in the right flank with 1×10^7 MDA-MB-231 cells suspended in 0.1 ml of Matrigel Basement Membrane Matrix (Becton Dickinson, Bedford, MA, USA). Tumor growth was monitored by palpation, and the onset when tumors were detectable was noted. Tumor size was measured with calipers, and tumor volume was calculated assuming the shape as ellipsoid. Tumor incidence in percentage was calculated as the number of tumor-bearing mice divided by the total number of mice in each group, whereas tumor generation was calculated as the total number of tumors divided by total number of mice in each group. The volume of the tumor was determined using the following formula: tumor volume = length × width^2 ×0.523 [41].
At the end of the experiment, animals were sacrificed, and tumors were dissected and weighed. Individual tumors were split for fixation in the Shando Glyo-Fixx™ (Thermo Scientific, Pittsburgh, PA, USA) for histological examination. The paraffin-embedded sections were stained with hematoxylin and eosin (H&E).

MDA-MB-231 tumors = test: In situ TUNEL assay for apoptosis in xenograft tumor sections; type: in vivo, athymic NCr-nu/nu mice; details: lunasin 20 and 4 mg/kg (P = 0.0088, 0.0141 vs control), BBI 20 mg/kg i.p.
Protocol: In situ terminal deoxynucleotidyl transferase-mediated dUTP nick end labeling (TUNEL) assay was performed using ApopTag Detection Kit (Millipore, USA & Canada) and ran based on the manufacturer's protocol. Briefly, deparaffinized and rehydrated sections were pretreated with 20 µg/mL proteinase K for 15 min and incubated with terminal transferase and digoxigenin dUTP at 37°C for 1 h. After washing, sections were incubated with antidigoxigenin rhodamine (Millipore) and DAPI (Invitrogen), and slides were visualized by fluorescent microscopy (Axiophot 381). The apoptotic cells were calculated as percentage of positive cells over total number of cells counted in microscope at 400× magnification.

[3] = 4 mg/kg body weight i.p., n = 8

CC[C@H](C)[C@H](NC(=O)[C@H](CCCCN)NC(=O)[C@H](CCC(=O)O)NC(=O)[C@H](CCSC)NC(=O)[C@@H](NC(=O)[C@H](Cc1c[nH]cn1)NC(=O)[C@H](CCCCN)NC(=O)[C@H](CCC(=O)O)NC(=O)[C@H](CS)NC(=O)[C@@H]1CCCN1C(=O)[C@@H](NC(=O)[C@H](CC(C)C)NC(=O)[C@H](CC(N)=O)NC(=O)[C@@H](NC(=O)CNC(=O)[C@H](CCC(N)=O)NC(=O)[C@H](CC(C)C)NC(=O)[C@H](CCC(N)=O)NC(=O)[C@H](CCCCN)NC(=O)[C@H](CCCNC(=N)N)NC(=O)[C@H](CS)NC(=O)[C@H](CO)NC(=O)[C@H](CC(=O)O)NC(=O)[C@H](CCC(N)=O)NC(=O)[C@H](CCC(N)=O)NC(=O)[C@H](Cc1c[nH]cn1)NC(=O)[C@H](CCC(N)=O)NC(=O)[C@H](Cc1c[nH]c2ccccc12)NC(=O)[C@H](CCCCN)NC(=O)[C@@H](N)CO)C(C)C)[C@@H](C)O)[C@@H](C)CC)C(=O)N[C@@H](CCC(N)=O)C(=O)NCC(=O)N[C@@H](CCCNC(=N)N)C(=O)NCC(=O)N[C@@H](CC(=O)O)C(=O)N[C@@H](CC(=O)O)C(=O)N[C@@H](CC(=O)O)C(=O)N[C@@H](CC(=O)O)C(=O)N[C@@H](CC(=O)O)C(=O)N[C@@H](CC(=O)O)C(=O)N[C@@H](CC(=O)O)C(=O)N[C@@H](CC(=O)O)C(=O)N[C@@H](CC(=O)O)C(=O)O [lunasin]
total oral dose of lunasin absorbed ([1]; 3 hrs post-gavage, 3H-labelled synthetic lunasin (8 µCi) mixed with 240 mg LES, CD-1 mice fasted 8 hrs, scintillation counting of tissues): approximately 30%
crossing of the blood-brain barrier ([1]; oral gavage of 3H-lunasin with LES, CD-1 mice, 3H radioactivity in brain): able to cross the blood-brain barrier
tumor incidence (mice showing tumors) ([2]; 4 mg/kg body weight i.p. three times a week, n = 8): 50%
decrease of the sizes of tumors (tumor volume) versus control mice [2, 3]: 34%
tumor generation lower relative to BBI group [2, 3]: 69%
tumor incidence lower compared with the BBI group ([2]; 4 mg/kg body weight i.p.): 43%
tumor incidence lower compared with the control ([2]; 4 mg/kg body weight i.p.): 33%
tumor generation lower relative to control ([2]; 4 mg/kg body weight i.p., total number of tumors / total number of mice, P = 0.029 vs control, n = 8): 70%
tumor incidence (mice showing tumors) ([2]; 20 mg/kg body weight i.p. three times a week, n = 8): 38%
decrease of the sizes of tumors (tumor volume) versus control mice ([2]; 20 mg/kg body weight i.p., n = 8): 23%
tumor incidence lower compared with the BBI group ([2]; 20 mg/kg body weight i.p.): 57%
tumor incidence lower compared with the control ([2]; 20 mg/kg body weight i.p.): 49%
tumor generation ([2]; 20 mg/kg body weight i.p., versus vehicle-treated group): reduced
weight of tumors at the end of the experiment ([2]; both doses of lunasin (20, 4 mg/kg) compared to control-group (P = 0.2134, 0.1880) and BBI-group (P = 0.0909, 0.0569)): lower
body weight ([2]; i.p. three times a week, BBI 20 mg/kg, lunasin 20 and 4 mg/kg body weight, compared among the four groups, n = 8): No significant differences
appearance of tumors ([2]; lunasin 20 and 4 mg/kg i.p.): delay in the appearance of tumors
TUNEL-positive apoptotic cells in tumors (MDA-MB-231 tumors): significantly increased apoptosis
